Here are results for 20 compounds from PMC12516498, “Enzymatic, cell-based, and in silico evaluation of di-substituted aminomethyl-1,2,3-triazole–cinamamide hybrids as mushroom tyrosinase inhibitors” (RSC Advances, 2025).

Series [1] can be described thus: DPPH free radical-scavenging assay. To be noted: 200 µM compound, DPPH 110 µM, 30 min. As for the experimental part: As described previously, radical-scavenging activity was assessed using the 2,2-diphenyl-1-picrylhydrazyl (DPPH) assay. Briefly, the mixture of different concentrations of the compounds and DPPH methanolic solution (110 µM) was shaken in the dark at room temperature for 30 min. The mixture absorbance was measured at 517 nm. Quercetin was used as the positive control.[25]

The target of a further series is mushroom tyrosinase (Agaricus bisporus, UniProt C7FF04). Briefly: Enzyme kinetic study / determination of the inhibition type (Lineweaver–Burk). It counts as biochemical. Conditions: Lineweaver–Burk plot: Km increased, Vmax unchanged. As to the method: The substrate (L-DOPA) concentrations ranged from 0.5 to 2.8 mM according to the previously reported procedures.[24]
Sequence of mushroom tyrosinase (C7FF04 2-392): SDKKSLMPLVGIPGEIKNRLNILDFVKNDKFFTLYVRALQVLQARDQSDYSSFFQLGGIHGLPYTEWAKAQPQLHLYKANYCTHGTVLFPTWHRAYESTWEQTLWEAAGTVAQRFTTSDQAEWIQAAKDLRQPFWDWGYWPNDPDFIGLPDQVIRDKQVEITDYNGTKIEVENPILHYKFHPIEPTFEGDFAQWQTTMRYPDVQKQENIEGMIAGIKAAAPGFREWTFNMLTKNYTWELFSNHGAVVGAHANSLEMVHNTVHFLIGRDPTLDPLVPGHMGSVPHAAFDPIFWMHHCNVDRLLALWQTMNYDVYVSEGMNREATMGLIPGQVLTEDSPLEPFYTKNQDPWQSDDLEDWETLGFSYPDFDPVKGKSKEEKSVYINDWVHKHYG

The test system of series [2] is B16F10 melanoma cells. In words: Melanin content assay. It counts as cell-based, murine. Conditions: α-MSH 100 nM, 70 µM compound, 48 h, untreated control 92 µg mL^−1. As to the method: The melanin content assay was performed according to previously reported protocols with minor modifications. Briefly, B16F10 cells were seeded in 12-well plates at a density of 50 000 cells per well. After 24 hours of incubation, 100 nM α-MSH was added to each well, followed by the addition of compound 9i five hours later. The plates were then incubated for an additional 48 hours. Subsequently, the cells were washed twice with PBS and harvested using […]. The cell pellets were dissolved in 200 µL of 1 N NaOH containing 10% DMSO and incubated at 80 °C for 2 hours to solubilize the melanin. The absorbance of the resulting supernatant was measured at […] using a microplate reader. The melanin content was quantified using a calibration curve constructed from synthetic melanin standards, measured at 405 nm. Kojic acid was used as a positive control for comparison.[29]

Series [3] in a line: MTT assay for cell viability. It counts as cell-based, murine. Conditions: mouse, B16F10 melanoma cells, MTT, 72 h, read-out: % Viability ± SE. As for the experimental part:
(§1) The cytotoxic activity of all derivatives was determined using the 3-(4,5-dimethylthiazol-2-yl)-2,5-diphenyltetrazolium bromide (MTT) assay. B16F10 were obtained from the Pasteur Institute of Iran (https://en.pasteur.ac.ir/). Cells (at a density of 25 000 cells per ml) were grown at 37 °C in the presence of CO2 5% in DMEM (Gibco BRL, Grand Island, NY, USA), 10% fetal bovine serum (FBS, Gibco BRL). Next, cells were seeded in a 96-well plate and incubated at 37 °C with the derivative at different concentrations for 72 h. Following treatment, cells were incubated with MTT (0.5 mg mL^−1) for 3 h. The MTT-containing medium was then removed, and 100 µL of DMSO was added to each well, mixed thoroughly with a 10-minute shake to dissolve the formazan crystals. The absorbance of each well was measured at 540 nm.[28]
A general note: Tetrazolium dyes change colour on reduction, which living cells bring about.

Series [4] deals with B16F10 melanoma cells. Briefly: MTT assay for cell viability. Type of series: cell-based, murine. To be noted: concentrations ≤100 µM. As for the experimental part:
as §1

For a further series, the target named is tyrosinase. Conditions: in Fig. 1; 13–15; read-out: IC50 against Tyrosinase; cited from earlier work.

A value given as a limit tells only on which side of the number the result lay.

In the case of `O=C(C=Cc1ccccc1)NCc1cn(CC(=O)Nc2ccccc2)nn1` [Compound 9a, N-((1-(2-Oxo-2-(phenylamino)ethyl)-1H-1,2,3-triazol-4-yl)methyl)cinnamamide], the “DPPH radical scavenging % Inhibition at 200 µM” value in series [1] is given as 23.64 ± 4.63%.
Regarding `O=C(C=Cc1ccccc1)NCc1cn(CC(=O)Nc2ccc(F)cc2)nn1` [Compound 9b, N-((1-(2-((4-Fluorophenyl)amino)-2-oxoethyl)-1H-1,2,3-triazol-4-yl)methyl)cinnamamide], in series [1], the “DPPH radical scavenging % Inhibition at 200 µM” value is listed as 64.18 ± 2.31%.
With `O=C(C=Cc1ccccc1)NCc1cn(CC(=O)Nc2ccc(Cl)cc2)nn1` [Compound 9c, N-((1-(2-((4-Chlorophenyl)amino)-2-oxoethyl)-1H-1,2,3-triazol-4-yl)methyl)cinnamamide], the “DPPH radical scavenging % Inhibition at 200 µM” value in series [1] turned out to be 36.91 ± 0.51%.
Same read-out and setting: as for `O=C(C=Cc1ccccc1)NCc1cn(CC(=O)Nc2ccc(Br)cc2)nn1` [Compound 9d, N-((1-(2-((4-Bromophenyl)amino)-2-oxoethyl)-1H-1,2,3-triazol-4-yl)methyl)cinnamamide], the figure is 41.09 ± 4.11%; as for `CCc1ccc(NC(=O)Cn2cc(CNC(=O)C=Cc3ccccc3)nn2)cc1` [Compound 9e, N-((1-(2-((4-Ethylphenyl)amino)-2-oxoethyl)-1H-1,2,3-triazol-4-yl)methyl)cinnamamide], 47.36 ± 1.93%; as for `O=C(C=Cc1ccc(Cl)cc1)NCc1cn(CC(=O)Nc2ccccc2)nn1` [Compound 9f, 3-(4-Chlorophenyl)-N-((1-(2-oxo-2-(phenylamino)ethyl)-1H-1,2,3-triazol-4-yl)methyl)acrylamide], 46.18 ± 1.54%.
For the compound `O=C(C=Cc1ccc(Cl)cc1)NCc1cn(CC(=O)Nc2ccc(F)cc2)nn1` [Compound 9g, 3-(4-Chlorophenyl)-N-((1-(2-((4-fluorophenyl)amino)-2-oxoethyl)-1H-1,2,3-triazol-4-yl)methyl)acrylamide], the “DPPH radical scavenging % Inhibition at 200 µM” value in series [1] is reported as 45.73 ± 3.47%.
`O=C(C=Cc1ccc(Cl)cc1)NCc1cn(CC(=O)Nc2ccc(Cl)cc2)nn1` [Compound 9h, 3-(4-Chlorophenyl)-N-((1-(2-((4-chlorophenyl)amino)-2-oxoethyl)-1H-1,2,3-triazol-4-yl)methyl)acrylamide]: in series [1], the “DPPH radical scavenging % Inhibition at 200 µM” value is given as 22.82 ± 0.90%.
Regarding `O=C(C=Cc1ccc(Cl)cc1)NCc1cn(CC(=O)Nc2ccc(Br)cc2)nn1` [Compound 9i, N-((1-(2-((4-Bromophenyl)amino)-2-oxoethyl)-1H-1,2,3-triazol-4-yl)methyl)-3-(4-chlorophenyl)acrylamide], on mushroom tyrosinase, the Inhibition type entry is “competitive inhibition”. The “DPPH radical scavenging % Inhibition at 200 µM” value in series [1] is recorded as 51.82 ± 2.31%. Further, in the series with B16F10 melanoma cells [2], the Intracellular melanin content worked out at 62 µg/mL. Moreover, the viability (in general, the share of living cells, or the viability signal relative to a control) at 72 h, 100 µM in series [3] (B16F10, 100 µM) is over 80%. The viability at 72 h, 150 µM in series [3] (B16F10, 150 µM) turned out to be 58.2 ± 3.43%. The viability at 72 h, 200 µM in series [3] (B16F10, 200 µM) is 51.2 ± 4.34%. Also, the “Cytotoxicity to B16F10 melanoma cells (in words)” value with B16F10 melanoma cells [4] is “low cytotoxicity”.
On to `CCc1ccc(NC(=O)Cn2cc(CNC(=O)C=Cc3ccc(Cl)cc3)nn2)cc1` [Compound 9j, 3-(4-Chlorophenyl)-N-((1-(2-((4-ethylphenyl)amino)-2-oxoethyl)-1H-1,2,3-triazol-4-yl)methyl)acrylamide], for which the “DPPH radical scavenging % Inhibition at 200 µM” value in series [1] is reported as 82.36 ± 5.91%.
Still for that read-out and setting: as for `COc1ccc(NC(=O)Cn2cc(CNC(=O)C=Cc3ccc(Cl)cc3)nn2)cc1` [Compound 9k, 3-(4-Chlorophenyl)-N-((1-(2-((4-methoxyphenyl)amino)-2-oxoethyl)-1H-1,2,3-triazol-4-yl)methyl)acrylamide], the figure is 55.28 ± 0.16%.
In the case of `COc1ccc(C=CC(=O)NCc2cn(CC(=O)Nc3ccccc3)nn2)cc1` [Compound 9l, 3-(4-Methoxyphenyl)-N-((1-(2-oxo-2-(phenylamino)ethyl)-1H-1,2,3-triazol-4-yl)methyl)acrylamide], in series [1], the “DPPH radical scavenging % Inhibition at 200 µM” value is 43.91 ± 4.50%.
The same measure, in the same setting: as for `COc1ccc(C=CC(=O)NCc2cn(CC(=O)Nc3ccc(F)cc3)nn2)cc1` [Compound 9m, N-((1-(2-((4-Fluorophenyl)amino)-2-oxoethyl)-1H-1,2,3-triazol-4-yl)methyl)-3-(4-methoxyphenyl)acrylamide], the figure is 60.18 ± 6.94%; as for `COc1ccc(C=CC(=O)NCc2cn(CC(=O)Nc3ccc(Cl)cc3)nn2)cc1` [Compound 9n, N-((1-(2-((4-Chlorophenyl)amino)-2-oxoethyl)-1H-1,2,3-triazol-4-yl)methyl)-3-(4-methoxyphenyl)acrylamide], 68.64 ± 7.33%.
The same measure, in the same setting: as for `COc1ccc(C=CC(=O)NCc2cn(CC(=O)Nc3ccc(Br)cc3)nn2)cc1` [Compound 9o, N-((1-(2-((4-Bromophenyl)amino)-2-oxoethyl)-1H-1,2,3-triazol-4-yl)methyl)-3-(4-methoxyphenyl)acrylamide], the figure is 57.09 ± 6.17%.
On the same count and under the same terms, as for `CCc1ccc(NC(=O)Cn2cc(CNC(=O)C=Cc3ccc(OC)cc3)nn2)cc1` [Compound 9p, N-((1-(2-((4-Ethylphenyl)amino)-2-oxoethyl)-1H-1,2,3-triazol-4-yl)methyl)-3-(4 methoxyphenyl)acrylamide], the figure is 40.73 ± 5.91%.
On to `COc1ccc(C=CC(=O)NCc2cn(CC(=O)Nc3ccc(OC)cc3)nn2)cc1` [Compound 9q, 3-(4-Methoxyphenyl)-N-((1-(2-((4-methoxyphenyl)amino)-2-oxoethyl)-1H-1,2,3-triazol-4-yl)methyl)acrylamide], for which, in series [1], the “DPPH radical scavenging % Inhibition at 200 µM” value is listed as 61.51 ± 3.74%.
On to `NC(=S)N/N=C/c1ccc(OCc2cn(Cc3ccc(F)cc3)nn2)cc1` [D], for which the half-inhibitory concentration (IC50) (in general, the concentration that gives 50% inhibition) on tyrosinase is 220 nM.
On to `Clc1ccc(Cn2cc(COc3ccc(-c4nc5ccccc5[nH]4)cc3)nn2)cc1Cl` [E], for which, at tyrosinase, the IC50 is 9420 nM.
On to `O=c1cc(Cn2cc(Oc3ccc4ccccc4c3)nn2)occ1O` [F], for which the IC50 at tyrosinase was 300 nM.
